Reference: patent US6602914B2, “Compounds and methods for the inhibition of the expression of VCAM-1” (AtheroGenics, Inc., priority 1997, dated 2003)

Test system: ApoB/HepG2
Test: Lipid Screen & IC50 Determination Protocol: ApoB ELISA of HEPG2 media
Type: cell-based, human
Settings: HEPG2, 24 hours; for IC50: bare number = IC50, NE not defined in the patent, read-out: ApoB/HepG2 IC50 or % inhibition at [μM]: IC50
Description: HEPG2 cell was started in 10 ml of MEM, 10% FBS, 1 mM Sodium Pyruvate. The cells were incubated in a tissue culture incubator. The cells were split into 4×96-wells plate in MEM, 10% FBS, 1 mM Sodium Pyruvate and allowed to grow to about 50% confluency and then removed.
The cells were treated with the desired concentration of compounds in 100 μl DMEM, 1% RSA for 24 hours. The compounds are dissolved in DMSO.
On the same day, 4×96-wells NuncImmunoSorb plate is coated with 100 μl of mouse anti-human ApoB monoclonal 1D1 (1:1000 dilution in 1×PBS, pH 7.4). The coating is allowed overnight.
The coated plate is washed 3 times with 1×PBS, pH 7.4, −0.05% Tween 20. 100 μl of the standards is added to the selected wells. ApoB standards are prepared at 6.25, 3.12, 1.56, 0.78, 0.39 ng, and each concentration is done in triplicates. For samples:
90 μl of 1×PBS, pH 7.4, −0.05% Tween 20 is added to each well corresponding to the sample. 10 μl of media is transferred from the treated HEPG2 plates to the ApoB ELISA plate. The plate is incubated at room temperature for 2 hours, rocking gently.
Wash the coated plate 3× with 1×PBS, pH 7.4, −0.05% Tween 20. Add 100 μl of sheep anti-human ApoB polyclonal from Boehringer Mannheim. (1:2000 dilution in 1×PBS, pH 7.4, −0.05% Tween 20) from Boehringer Mannheim. Incubate at room temperature for 1 hour, rocking gently. Wash the coated plate 3× with 1×PBS, pH 7.4, −0.05% Tween 20. Add 100 μl of rabbit anti-sheep IgG (1:2000 dilution in 1×PBS, pH 7.4, −0.05% Tween 20). Incubate at room temperature for 1 hour, rocking gently. Wash the coated plate 3× with 1×PBS, pH 7.4, −0.05% Tween 20. Add 100 μl of substrate (10 ml of distilled water, 100 μl of TMB (10 mg/ml), and 1 μl of hydrogen peroxide). Allow color to emerge and stop reaction with 25 ul of 8N sulfuric acid. Wells are read with MicroPlate Reader @ […]. Graph accumulation of ApoB in media as a percentage of control for each sample and their concentration. A determination of IC50 is obtained from the graph.
The degree of inhibition of the compounds of formulas (I) and (II) was determined by the assays described in Examples 62-64.

Compound | inhibition at 15 µM (Homo sapiens, at 15 μM) | further results
1,2,3-Butanetriol, 4-[4-[[1-[[3,5-bis(1,1-dimethylethyl)-4-hydroxyphenyl]thio]=1-methylethyl]thio]-2,6-bis(1,1-dimethylethyl)phenoxy]-2-hydroxypropyl]- |  | ApoB/HepG2 % inhibition at [μM] (at 1 μM): 6% at 1
CC(C)(Sc1cc(C(C)(C)C)c(O)c(C(C)(C)C)c1)Sc1cc(C(C)(C)C)c(OCC(O)CO)c(C(C)(C)C)c1 (stereo not shown) [1,2-Propanediol, 3-[4-[[1-[[3,5-bis(1,1-dimethylethyl)-4-hydroxyphenyl]thio]-1-methylethyl]thio]-2,6-bis(1,1-dimethylethyl)phenoxy]-] | 40% | 
COc1c(C(C)(C)C)cc(SCc2ccc(C(F)(F)F)cc2)cc1C(C)(C)C [2,6-di-tert-butyl-1-methoxy-4-thio(4′-trifluoromethyl)benzyl)benzene] |  | IC50: < 10 µM
CCCCC(OC(C)=O)Sc1cc(C(C)(C)C)c(O)c(C(C)(C)C)c1 (stereo not shown) [2,6-di-tert-butylthio((1′-(acetoxy))pentyl)phenol] |  | IC50: 30 µM
CC(C)(Sc1cc(C(C)(C)C)c(O)c(C(C)(C)C)c1)Sc1cc(C(C)(C)C)c(OC(=O)c2ccc([N+](=O)[O-])o2)c(C(C)(C)C)c1 [2-Furancarboxylic acid, 5-nitro-, 4-[[1-[[3,5-bis(1,1-dimethylethyl)-4-hydroxyphenyl]thio]-1-methylethyl]thio]-2,6-bis(1,1-dimethylethyl)phenyl ester] | 17% | 
COc1c(C(C)(C)C)cc(SC(C)(C)Sc2cc(C(C)(C)C)c(OC(=O)CCC(=O)O)c(C(C)(C)C)c2)cc1C(C)(C)C [Butanedioic acid, mono[4-[[1-[[3,5-bis(1,1-dimethylethyl)-4-methoxyphenyl]thiol]1-methylethyl]thiol-2,6-bis(1,1-dimethylethyl)phenyl] ester] |  | ApoB/HepG2 % inhibition at [μM] (at 15 μM): 89% at 15
CC(C)(Sc1cc(C(C)(C)C)c(O)c(C(C)(C)C)c1)Sc1cc(C(C)(C)C)c(OCCCC(=O)O)c(C(C)(C)C)c1 [Butanoic acid, 4-[4-[[1-[[3,5-bis(1,1-dimethylethyl)4-hydroxyphenyl]thio]-1-methylethyl]thio]-2,6-bis(1,1-dimethylethyl)phenoxy]-] | 77% | 
Cc1cc(SC(C)(C)Sc2cc(C(C)(C)C)c(O)c(C(C)(C)C)c2)cc(C)c1OCCCC(=O)O [Butanoic acid, 4-[4-[[1-[[3,5-bis(1,1-dimethylethyl)-4-hydroxyphenyl]thio]-1-methylethyl]thio]2,6-dimethylphenoxy]-] | 41% | 
CC(C)(Sc1ccc(OCCCC(=O)O)cc1)Sc1cc(C(C)(C)C)c(O)c(C(C)(C)C)c1 [Butanoic acid, 4-[4-[[1-[[3,5-bis(1,1-dimethylethyl)-4-hydroxyphenyl]thio]-1-methylethyl]thio]phenoxy]-] | 47% | 
CC(C)(Sc1cc(C(C)(C)C)c(O)c(C(C)(C)C)c1)Sc1cc(C(C)(C)C)c(OC(=O)CCCO)c(C(C)(C)C)c1 [Butanoic acid, 4-hydorxy-, 4-[[1-[[3,5-bis(1,1-dimethylethyl)-4-hydroxyphenyl]thio]-1-methylethyl]thio]-2,6-bis(1,1-dimethylethyl)phenyl ester] |  | ApoB/HepG2 % inhibition at [μM] (at 15 μM): 81% at 15
CC(C)(CO)CC(=O)Oc1c(C(C)(C)C)cc(SC(C)(C)Sc2cc(C(C)(C)C)c(O)c(C(C)(C)C)c2)cc1C(C)(C)C [Butanoic acid, 4-hydroxy-3,3-dimethyl-, 4-[[1-[[3,5-bis(1,1-dimethylethyl)-4-hydroxyphenyl]thio]-1-methylethyl]thio]-2,6-bis(1,1-dimethylethyl)phenyl ester] | 90% | 
CC(C)(Sc1cc(C(C)(C)C)c(O)c(C(C)(C)C)c1)Sc1cc(C(C)(C)C)c(OCC(=O)N[C@@H](CCC(=O)O)C(=O)O)c(C(C)(C)C)c1 [Glutamic acid, N-[[4-[[1-[[3,5-bis(1,1-dimethylethyl)-4-hydroxyphenyl]thio]-1-methylethyl]thio]-2,6-bis(1,1-dimethylethyl)phenoxy]acetyl]-] | 94% | 
CC(C)(Sc1cc(C(C)(C)C)c(O)c(C(C)(C)C)c1)Sc1cc(C(C)(C)C)c(OC(=O)CN)c(C(C)(C)C)c1 [Glycine, 4-[[1-[[3,5-bis(1,1-dimethylethyl)-4-hydroxyphenyl]thio]-1-methylethyl]thio]-2,6-bis(1,1-dimethylethyl)phenyl ester] |  | inhibition at 5 µM (Homo sapiens, at 5 μM): 30%
CC(C)(Sc1cc(C(C)(C)C)c(O)c(C(C)(C)C)c1)Sc1cc(C(C)(C)C)c(OCC(O)CNCC(=O)O)c(C(C)(C)C)c1 (stereo not shown) [Glycine, N-[3-[4-[[1-[(3,5-bis(1,1-dimethylethyl)-4-hydroxyphenyl]thio]-1-methylethyl]thio]-2,6-bis(1,1-dimethylethyl)phenoxy]2-hydroxypropyl]-] | 45% | 
CC(C)(Sc1cc(C(C)(C)C)c(O)c(C(C)(C)C)c1)Sc1cc(C(C)(C)C)c(OCC(=O)NCC(=O)O)c(C(C)(C)C)c1 [Glycine, N-[[4-[[1-[[3,5-bis(1,1-dimethylethyl)-4-hydroxyphenyl]thio]-1,methylethyl]thio]-2,6-bis(1,1-dimethylethyl)phenoxylacetyl]-] |  | ApoB/HepG2 % inhibition at [μM] (at 15 μM): 83% at 15
CC(C)(Sc1cc(C(C)(C)C)c(O)c(C(C)(C)C)c1)Sc1cc(C(C)(C)C)c(OC(=O)CCC(=O)O)c(C(C)(C)C)c1.N=C(N)NCCC[C@H](N)C(=O)O [L-Arginine, mono[4-[[1-[[3,5-bis(1,1-dimethylethyl)-4-hydroxyphenyl]thio]-1-methylethyl]thio]-2,6-bis(1,1-dimethylethyl)phenyl butanedioate]] |  | ApoB/HepG2 % inhibition at [μM] (at 15 μM): 93% at 15
